Source: paper PMC6070903 (Viruses, 2018)
Values after ≈ are worked out from the molar mass of the structure shown.

Legend:
P. aeruginosa ATCC 27853 = assay: Broth microdilution MIC; format: cell-based; settings: Pseudomonas aeruginosa, ATCC27853, 24 h, 35 ± 2 °C
THP-1 cells [1] = assay: Cell viability of THP-1 cells, WST-1 assay; format: cell-based; settings: Homo sapiens, WST-1, 24 h, 0.25 to 20 μM, read-out: IC50 for the THP-1 cell line (viability)
E. coli ATCC 25922 = assay: Broth microdilution MIC; format: cell-based; settings: Escherichia coli, ATCC25922, 24 h, 35 ± 2 °C
S. aureus ATCC 29213 = assay: Broth microdilution MIC; format: cell-based; settings: Staphylococcus aureus, ATCC29213, 24 h, 35 ± 2 °C
C. albicans ATCC 10231 = assay: Broth microdilution MIC; format: cell-based; settings: Candida albicans, ATCC10231, 48 h, 25 ± 2 °C
[2] = tested on: HL-60 (promyelocytic leukemia) cells; parameters: method as in earlier work; settings: read-out: IC50 against HL-60 cells; cited from earlier work
B. cereus ATCC 11778 = assay: Broth microdilution MIC; format: cell-based; settings: Bacillus cereus, ATCC11778, 24 h, 35 ± 2 °C
[3] = tested on: Gram-positive bacteria S. aureus and B. cereus; assay: Broth microdilution MIC, summary for both Gram-positive strains; format: cell-based; settings: S. aureus and B. cereus together
THP-1 cells [4] = assay: Pyocyanin-triggered ROS production in THP-1 cells, DCFH-DA; format: cell-based, human; settings: 5 μM, pyocyanin 100 μM, THP-1 monocytes
in vitro = settings: African green monkey
[5] = tested on: HSV-2 (clinical isolates, acyclovir-sensitive); assay: Anti-HSV-2 titer reduction assay in Vero cells; format: cell-based, Herpes simplex virus; settings: for EC50: Human alphaherpesvirus 2, HSV-2, titer reduction, 48 h, Vero cells; for Selectivity Index CC50/EC50: HSV-2, Vero CC50 / EC50
HSV-1 strain KOS = assay: Anti-HSV-1 plaque reduction assay in Vero cells; format: cell-based, Herpes simplex virus; settings: for IC50: Human alphaherpesvirus 1, HSV-1, plaque reduction, 72 h, Vero cells; for Selectivity Index CC50/IC50: HSV-1, Vero CC50 / IC50
NF-κB/AP-1 = NF-κB/AP-1 activity, SEAP reporter in LPS-stimulated THP-1-XBlue-MD2-CD14 cells; format: cell-based, human; settings: 5 μM, LPS 1 μg/mL, 24 h, vs vehicle
IL-1β = assay: LPS-stimulated IL-1β secretion in PMA-differentiated THP-1 macrophages, ELISA; format: cell-based, human; settings: 5 μM, LPS 1 μg/mL, 24 h
TNF-α = assay: LPS-stimulated TNF-α secretion in PMA-differentiated THP-1 macrophages, ELISA; format: cell-based, human; settings: 5 μM, LPS 1 μg/mL, 24 h

C=C(C)C1CCC(=C)C2(O)CCC3(C)C(CC(C)C)c4c(O)c(C=O)c(O)c(C=O)c4OC3C12 (centres unmarked) [Compound 4, Eucalyptal A]
MIC (P. aeruginosa ATCC 27853): > 128 µg/mL
IC50 (THP-1 cells [1]): 1200 nM
MIC (E. coli ATCC 25922): > 128 µg/mL
MIC (S. aureus ATCC 29213): > 128 µg/mL
MIC (C. albicans ATCC 10231): > 128 µg/mL
IC50 [2]: 1700 nM
MIC (B. cereus ATCC 11778): 32 µg/mL (≈ 68.3 µM)

C[C@H]1[C@H](C)CC[C@]2(C(=O)O)CC[C@]3(C)C(=CC[C@@H]4[C@@]5(C)CC[C@H](O)C(C)(C)[C@@H]5CC[C@]43C)[C@H]12 [Compound 11, Ursolic acid]
MIC (P. aeruginosa ATCC 27853): > 128 µg/mL
MIC (E. coli ATCC 25922): > 128 µg/mL
MIC (S. aureus ATCC 29213): 128 µg/mL (≈ 280 µM)
MIC (C. albicans ATCC 10231): > 128 µg/mL
MIC (B. cereus ATCC 11778): 32 µg/mL (≈ 70.1 µM)

CCC(C)C(=O)c1c(O)cc(OC)c(C)c1O (centres unmarked) [Compound 3, Pulverulentone B]
MIC (P. aeruginosa ATCC 27853): > 32 µg/mL
MIC range against both Gram-positive strains [3]: 8 to 32 µg/mL
MIC (E. coli ATCC 25922): > 32 µg/mL
MIC (S. aureus ATCC 29213): 32 µg/mL (≈ 134 µM)
MIC (C. albicans ATCC 10231): > 32 µg/mL
Effect on production of ROS (THP-1 cells [4]): no significant antioxidant potential
MIC (B. cereus ATCC 11778): 8 µg/mL (≈ 33.6 µM)

Nc1nc2c(ncn2COCCO)c(=O)[nH]1 [Acyclovir, acyclovir, reference compound]
CC50 at 84 h (in vitro): > 210 µg/mL
EC50 [5]: 1.75 ± 0.33 µg/mL (≈ 7.77 µM)
IC50 (HSV-1 strain KOS): 1.92 ± 0.23 µg/mL (≈ 8.53 µM)

COc1ccc(-c2cc(=O)c3c(O)c(C)c(OC)cc3o2)cc1 [Compound 9, 8-Demethyleucalyptin]
MIC (P. aeruginosa ATCC 27853): > 64 µg/mL
Effect on NF-κB/AP-1 activity (NF-κB/AP-1): reduce the activation of NF-κB/AP-1
MIC (E. coli ATCC 25922): > 64 µg/mL
MIC (S. aureus ATCC 29213): > 64 µg/mL
MIC (C. albicans ATCC 10231): > 64 µg/mL
MIC (B. cereus ATCC 11778): > 64 µg/mL

CN(C)[C@@H]1C(O)=C(C(N)=O)C(=O)[C@@]2(O)C(O)=C3C(=O)c4c(O)cccc4[C@@](C)(O)[C@H]3C[C@@H]12 [tetracycline, reference compound]
MIC (P. aeruginosa ATCC 27853): 16 µg/mL (≈ 36 µM)
MIC (E. coli ATCC 25922): 1 µg/mL (≈ 2.25 µM)
MIC (S. aureus ATCC 29213): 0.125 µg/mL (≈ 0.281 µM)
MIC (B. cereus ATCC 11778): 0.03 µg/mL (≈ 0.0675 µM)

COc1ccc(-c2cc(=O)c3c(O)c(C)c(OC)c(C)c3o2)cc1 [Compound 8, Eucalyptin]
MIC (P. aeruginosa ATCC 27853): > 64 µg/mL
MIC (E. coli ATCC 25922): > 64 µg/mL
Effect on LPS-stimulated secretion of IL-1β (IL-1β): increased the secretion of the IL-1β
MIC (S. aureus ATCC 29213): > 64 µg/mL
MIC (C. albicans ATCC 10231): > 64 µg/mL
Effect on LPS-stimulated secretion of TNF-α (TNF-α): Neither compound 8 nor 12 showed any influence on the secretion of TNF-α
MIC (B. cereus ATCC 11778): > 64 µg/mL

COc1cc(/C=C/C(=O)O[C@H]2CC[C@]3(C)[C@H]4C=C[C@]56OC(=O)[C@@]7(CC[C@@H](C)[C@H](C)[C@H]75)CC[C@@]6(C)[C@]4(C)CC[C@H]3C2(C)C)ccc1O [Compound 12, Tereticornate A]
MIC (P. aeruginosa ATCC 27853): > 32 µg/mL
CC50 at 84 h (in vitro): > 210 µg/mL
Effect on NF-κB/AP-1 activity (NF-κB/AP-1): statistically significant inhibitory potential, stronger than that of prednisone
MIC (E. coli ATCC 25922): > 32 µg/mL
Effect on LPS-stimulated secretion of IL-1β (IL-1β): attenuates the LPS-stimulated secretion of IL-1β
MIC (S. aureus ATCC 29213): > 32 µg/mL
MIC (C. albicans ATCC 10231): > 32 µg/mL
Selectivity Index CC50/IC50 (HSV-1 strain KOS): >218.8
IC50 (HSV-1 strain KOS): 0.96 ± 0.12 µg/mL (≈ 1.52 µM)
Effect on LPS-stimulated secretion of TNF-α (TNF-α): Neither compound 8 nor 12 showed any influence on the secretion of TNF-α
MIC (B. cereus ATCC 11778): > 32 µg/mL

C=C1CC[C@H](C(C)(C)O)/C=C/[C@@H](C)CCC1=O [Compound 1, Litseagermacrane]
MIC (P. aeruginosa ATCC 27853): > 64 µg/mL
CC50 at 84 h (in vitro): > 210 µg/mL
Selectivity Index CC50/EC50 [5]: >168.0
EC50 [5]: 1.25 ± 0.2 µg/mL (≈ 5.29 µM)
MIC (E. coli ATCC 25922): > 64 µg/mL
MIC (S. aureus ATCC 29213): > 64 µg/mL
MIC (C. albicans ATCC 10231): > 64 µg/mL
Effect on production of ROS (THP-1 cells [4]): no significant antioxidant potential
MIC (B. cereus ATCC 11778): 64 µg/mL (≈ 271 µM)

Clc1ccc(C(Cn2ccnc2)OCc2ccsc2Cl)c(Cl)c1 (centres unmarked) [tioconazole, reference compound]
MIC (C. albicans ATCC 10231): 4 µg/mL (≈ 10.3 µM)

c1cc2c(cc1[C@H]1OC[C@H]3[C@@H]1CO[C@@H]3c1ccc3c(c1)OCO3)OCO2 [Compound 10, Sesamin]
MIC (P. aeruginosa ATCC 27853): > 32 µg/mL
MIC (E. coli ATCC 25922): > 32 µg/mL
MIC (S. aureus ATCC 29213): > 32 µg/mL
MIC (C. albicans ATCC 10231): > 32 µg/mL
MIC (B. cereus ATCC 11778): > 32 µg/mL

Cc1cc(=O)c2c(O)cc(O[C@@H]3O[C@H](COC(=O)C4=CC[C@H](C(C)(C)O)CC4)[C@@H](O)[C@H](O)[C@H]3O)cc2o1 [Compound 5, Cypellocarpin C]
MIC (P. aeruginosa ATCC 27853): > 128 µg/mL
CC50 at 84 h (in vitro): > 210 µg/mL
Selectivity Index CC50/EC50 [5]: >287.7
EC50 [5]: 0.73 ± 0.11 µg/mL (≈ 1.4 µM)
MIC (E. coli ATCC 25922): > 128 µg/mL
MIC (S. aureus ATCC 29213): > 128 µg/mL
MIC (C. albicans ATCC 10231): > 128 µg/mL
MIC (B. cereus ATCC 11778): > 128 µg/mL

COc1cc2oc(-c3ccc(O)cc3)cc(=O)c2c(O)c1C [Compound 7, 8-Demethylsideroxylin]
MIC (P. aeruginosa ATCC 27853): > 128 µg/mL
Effect on NF-κB/AP-1 activity (NF-κB/AP-1): enhance it
MIC (E. coli ATCC 25922): > 128 µg/mL
MIC (S. aureus ATCC 29213): > 128 µg/mL
MIC (C. albicans ATCC 10231): > 128 µg/mL
MIC (B. cereus ATCC 11778): 128 µg/mL (≈ 429 µM)

Cc1c(O)c(C=O)c(O)c(C(=O)CC(C)C)c1O [Compound 2, Grandinol]
MIC (P. aeruginosa ATCC 27853): > 64 µg/mL
CC50 at 84 h (in vitro): > 210 µg/mL
MIC range against both Gram-positive strains [3]: 8 to 32 µg/mL
MIC (E. coli ATCC 25922): > 64 µg/mL
MIC (S. aureus ATCC 29213): 16 µg/mL (≈ 63.4 µM)
MIC (C. albicans ATCC 10231): > 64 µg/mL
Effect on production of ROS (THP-1 cells [4]): significantly increased the production of ROS
Selectivity Index CC50/IC50 (HSV-1 strain KOS): >170.7
IC50 (HSV-1 strain KOS): 1.23 ± 0.13 µg/mL (≈ 4.88 µM)
MIC (B. cereus ATCC 11778): 16 µg/mL (≈ 63.4 µM)

COc1c(C)c(O)c2c(=O)cc(-c3ccc(O)cc3)oc2c1C [Compound 6, Sideroxylin]
MIC (P. aeruginosa ATCC 27853): > 64 µg/mL
CC50 at 84 h (in vitro): > 210 µg/mL
Effect on NF-κB/AP-1 activity (NF-κB/AP-1): enhance it
MIC (E. coli ATCC 25922): > 64 µg/mL
MIC (S. aureus ATCC 29213): > 64 µg/mL
MIC (C. albicans ATCC 10231): > 64 µg/mL
Selectivity Index CC50/IC50 (HSV-1 strain KOS): >145.8
IC50 (HSV-1 strain KOS): 1.44 ± 0.14 µg/mL (≈ 4.61 µM)
MIC (B. cereus ATCC 11778): 64 µg/mL (≈ 205 µM)
